In one assay the test system is MDA-MB-231. In words: Cytotoxicity against human MDA-MB-231 cells assessed as reduction in cell metabolic activity after 72 hrs by MTS assay. It is filed as functional, cell-based. As to conditions: MDA-MB-231, 72 h.
The nature of assay [1]: Cytotoxicity against human HMLE cells assessed as reduction in cell metabolic activity after 72 hrs by MTS assay. The class given is ADME, cell-based.

One may read the IC50 as the concentration that inhibits the measured activity by half. Regarding `CN[C@@H]1C[C@H]2O[C@@](C)([C@@H]1OC)n1c3cc(O)ccc3c3c4c(c5c6ccccc6n2c5c31)C(=O)NC4`, the values for the IC50 (in the assay on MDA-MB-231; in assay [1]) were 3.4 nM and 58.7 nM, respectively.
Turning to `CN[C@@H]1C[C@H]2O[C@@](C)([C@@H]1OC)n1c3ccccc3c3c4c(c5c6ccccc6n2c5c31)C(=O)NC4` [STAUROSPORINE], in the assay on MDA-MB-231, the IC50 amounted to 2.5 nM.
For `CN[C@@H]1C[C@H]2O[C@@](C)([C@@H]1OC)n1c3ccc(O)cc3c3c4c(c5c6ccccc6n2c5c31)C(=O)NC4`, the results for the IC50 (in the assay with MDA-MB-231; in assay [1]) were 2 nM and 27.5 nM, respectively.

These data come from ChEMBL document CHEMBL4725491, “Staurosporine Analogs Via C-H Borylation” (ACS Med Chem Lett, 2020).
